Laboratory results taken from US20220213126A1, “SMALL MOLECULE AUTOPHAGY INDUCERS FOR THE TREATMENT OF CANCER AND NEURODEGENERATIVE DISEASES” (John Wayne Cancer Institute, priority 2019, published 2022).
Like-named read-outs stand apart in the source and are kept apart here.

Columns and labels:
[1] = tested on: MDA-MB-231 tumor xenografts; assay: MDA-MB-231 tumor xenograft efficacy; type: in vivo, athymic nude mice
Protocol: To evaluate the anti-tumor efficacy of VMY-BC-1 in vivo, MDA-MB-231 tumor xenografts were established in the flanks of athymic nude mice. 5×10^6 MDA-MB-231 TNBC cells in 1×HBSS with 1:1 Matrigel® were implanted subcutaneously in the flank of 5-6 week old female athymic nude mice (CrTac:Ncr-Foxn1^nu; Taconic Biosciences, India). Mice (n=8) were treated with vehicle (2% (v/v) Tween® 80+98% (v/v) of 0.5% (w/v) hydroxypropyl methylcellulose (HPMC) in water) or VMY-BC-1 75 mg/kg PO daily for 14 days. The dose volume was 10 mL/kg. Tumor volume, tumor growth inhibition (TGI), body weight, and clinical signs were monitored. Tumor growth was measured twice weekly using a digital Vernier caliper. Tumor volume was calculated as [length×width^2]/2. TGI was calculated as:
% TGI={(TV ControlFinal−TV ControlInitial)−(TV TreatedFinal−TV TreatedInitial)}×100
At the end of the study, brain and plasma samples were collected for drug concentration. Tumor tissues were collected for immunohistochemistry, Western blot, and bioanalysis. Statistical analysis of tumor growth in the control and treated groups was performed by Student's T test using GraphPad Prism (Ver. 5.03).

[2] = tested on: proteins of MDA-MB-1 cells; assay: Thermal proteome profiling (TPP) for binding proteins
Protocol: To further elucidate targets that activate the above signaling mechanisms, thermal proteome profiling (TPP) was used to identify binding proteins (Franken et al., Nat. Protoc. 10:1567-1593, 2015; Miettinen et al., EMBO J. 37:e98359, 2018) (FIG. 5A). TPP enables an unbiased assessment of the proteins […] bound to VMY-BC-1 on a proteome-wide scale. Cell lysates were made from MDA-MB-1 cells treated with vehicle or 10 μM VMY-BC-1 for 24 hours. Lysates were heated at different temperatures for 3 minutes in a thermal cycler. Equal amounts of protein were digested, labeled with TMT 10-plex and analyzed by mass spectrometry. The fold-changes in protein abundances were computed relative to the lowest temperature in the temperature set. After a normalization, melting curves were fitted to the fold-changes of each individual protein. The thermal stability of proteins affected by VMY-BC-1 treatment was calculated using the differences between melting points from control for each protein. From the 5,634 proteins screened, 10 target proteins were identified that bound VMY-BC-1: LIMK1, ATM, CDLK5, ULK1, WNK1, PP2C, AK1, IKBKAP, Q53E18, and HDAC1 (FIG. 5B).

[3] = Metabolic stability in human liver microsomes; type: in vitro ADME; conditions: for microsomal CLint: human, human liver microsomes
Caco-2 permeability = type: in vitro ADME; conditions: human, Caco-2
Caco-2 cell model = assay: Caco-2 permeability; type: in vitro ADME
ATM and ULK1 = assay: Cell viability assays with siRNA knock down of binding proteins; type: cell-based; conditions: preliminary
Protocol: To identify the functional target of VMY-BC-1, preliminary cell viability assays were carried out using siRNA to knock down each of the 10 identified binding proteins. […] Considering that that low ULK1 expression is associated with TNBC disease progression (Tang et al., Breast Cancer Res. Treat. 134:549-560, 2012) and autophagy controls the level of various DNA repair and checkpoint proteins in the DNA damage response pathway (Czarny et al., Int. J. Mol. Sci. 16:2641-2662, 2015; Gomes et al., Int. J. Mol. Sci. 18:2351, 2017), ULK1 activity in response to VMY-BC-1 was investigated. Protein extracts were made from MDA-MB-231 cells treated with vehicle control, VMY-BC-1 (10 μM), and Rapamycin (200 nM) at different time points.

ULK1 = assay: Western blot of autophagy proteins in U87 cells; type: cell-based; conditions: 10 μM, 12-48 hours
Protocol: FIG. 14 is a Western blot of autophagy proteins in U87 GBM cells treated with vehicle (control), VMY-BC-1, or Rapamycin. Western blot is shown for p-ULK1, LC3 A/B, and cleaved PARP.
The effect of VMY-BC-1 on autophagy-related proteins in U87 cells was tested. Protein extracts were made from cells treated with vehicle control, VMY-BC-1 (10 μM), or rapamycin (200 nM) for 12-48 hours.

MDA-MB-231 cells = assay: TNBC cell invasion, Transwells coated with Matrigel; type: cell-based; conditions: 10 μM, 24-72 hours
Protocol: FIGS. 2A and 2B are graphs showing the effect of VMY-BC-1 on TNBC cells. […] The percentage of cells crossing the chamber is presented as the mean±SEM. *P<0.05.
Effect of VMY-BC-1 on Triple Negative Breast Cancer Cell Lines A trans-stilbene boronic acid analog, VMY-BC-1, was tested against a TNBC cell line.

LogD octanol-water = type: physicochemical; conditions: pH 7.4, read-out: LogD (octanol-water partition coefficient), pH 7.4
Protocol: Moreover, PK studies of RSV in humans conclude that even high concentration of RSV might be insufficient to achieve in vivo concentrations required for the systemic prevention of cancer. Therefore, in vitro ADME assays were carried out to assess VMY-BC-1 and to identify properties for further optimization.

[4] = Stability in simulated gastric fluid; type: physicochemical

## COc1ccc(/C=C/c2cc(OC)cc(B(O)O)c2)cc1 [VMY-BC-1]
[1]; 75 mg/kg PO daily for 14 days
  Body weight: without any apparent change in body weight
  Tumor growth inhibition: approximately 30%
[1]; tumor tissue, 75 mg/kg PO
  Apoptosis by TUNEL staining: significant increase in apoptosis
  Reduction in Ki67 proliferation marker vs control: 50%
[1]; tumor tissue, 24 hours after treatment
  Phospho-ULK1 and LC3 protein expression in tumors: upregulated
[2]; 10 μM, 24 hours, 5,634 proteins screened
  Target proteins identified that bound VMY-BC-1: 10
[2]; of 5,634 proteins screened
  Fraction of bound protein: 0.0017 fraction
[3]; 30 min incubation
  Remaining at the end of incubation in human liver microsomes: 40%
[3]; Table 3, read-out: Metabolic stability in human liver microsome (CLint)
  microsomal CLint: 41.3 µL/min/mg
[3]; read-out: Intrinsic clearance in human liver microsomes
  microsomal CLint: 43 µL/min/mg
Caco-2 permeability
  efflux ratio: 0.4
Caco-2 permeability; A-B
  Papp A→B: 510 nm/s
Caco-2 permeability; B-A
  Papp B→A: 200 nm/s
Caco-2 cell model
  Permeability in Caco-2 cell model: high permeability
ATM and ULK1
  Effect of knock down of ATM and ULK1 on functional activity: abrogated the functional activity
ULK1
  Autophagy proteins and phosphorylation of ULK1 and LC3 A/B (Western blot): increasing amounts of autophagy proteins over time as well as increased phosphorylation of ULK1 and LC3 A/B
MDA-MB-231 cells
  TNBC cell invasion: significantly inhibited TNBC cell invasion in a time-dependent manner
LogD octanol-water
  logD: 3.37
[4]
  Stability in simulated gastric fluid: stable
[4]; pH 1.2
  Stability in simulated gastric fluid, pH 1.2: 87.81% remaining
